Data published in US8324245B2, “Quinoline derivative and quinazoline derivative inhibiting self-phosphorylation of hepatocytus proliferator receptor, and medicinal composition containing the same” (Kyowa Hakko Kirin Co., Ltd., priority 2001, dated 2012).

molecular target: T1, met (HGF receptor) in human gastric cancer cells MKN45 (Homo sapiens, UniProt P08581); assay: Inhibitory activity against met-autophosphorylation using ELISA method (2), MKN45 cells, HGF-independent; format: cell-based
T1 construct: endogenous in cells; host or cells: MKN45 human gastric cancer cells
Procedure, shortened: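 Met autophosphorylation was read by sandwich ELISA: phosphotyrosine capture (PY20), anti-HGF receptor detection, peroxidase read-out at 450 nm. Lysates came from MKN45 gastric cancer cells kept in 0.1% FCS RPMI and treated 1 h at 37 °C with test compound, with no added HGF.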

T1 sequence (P08581 25-1390): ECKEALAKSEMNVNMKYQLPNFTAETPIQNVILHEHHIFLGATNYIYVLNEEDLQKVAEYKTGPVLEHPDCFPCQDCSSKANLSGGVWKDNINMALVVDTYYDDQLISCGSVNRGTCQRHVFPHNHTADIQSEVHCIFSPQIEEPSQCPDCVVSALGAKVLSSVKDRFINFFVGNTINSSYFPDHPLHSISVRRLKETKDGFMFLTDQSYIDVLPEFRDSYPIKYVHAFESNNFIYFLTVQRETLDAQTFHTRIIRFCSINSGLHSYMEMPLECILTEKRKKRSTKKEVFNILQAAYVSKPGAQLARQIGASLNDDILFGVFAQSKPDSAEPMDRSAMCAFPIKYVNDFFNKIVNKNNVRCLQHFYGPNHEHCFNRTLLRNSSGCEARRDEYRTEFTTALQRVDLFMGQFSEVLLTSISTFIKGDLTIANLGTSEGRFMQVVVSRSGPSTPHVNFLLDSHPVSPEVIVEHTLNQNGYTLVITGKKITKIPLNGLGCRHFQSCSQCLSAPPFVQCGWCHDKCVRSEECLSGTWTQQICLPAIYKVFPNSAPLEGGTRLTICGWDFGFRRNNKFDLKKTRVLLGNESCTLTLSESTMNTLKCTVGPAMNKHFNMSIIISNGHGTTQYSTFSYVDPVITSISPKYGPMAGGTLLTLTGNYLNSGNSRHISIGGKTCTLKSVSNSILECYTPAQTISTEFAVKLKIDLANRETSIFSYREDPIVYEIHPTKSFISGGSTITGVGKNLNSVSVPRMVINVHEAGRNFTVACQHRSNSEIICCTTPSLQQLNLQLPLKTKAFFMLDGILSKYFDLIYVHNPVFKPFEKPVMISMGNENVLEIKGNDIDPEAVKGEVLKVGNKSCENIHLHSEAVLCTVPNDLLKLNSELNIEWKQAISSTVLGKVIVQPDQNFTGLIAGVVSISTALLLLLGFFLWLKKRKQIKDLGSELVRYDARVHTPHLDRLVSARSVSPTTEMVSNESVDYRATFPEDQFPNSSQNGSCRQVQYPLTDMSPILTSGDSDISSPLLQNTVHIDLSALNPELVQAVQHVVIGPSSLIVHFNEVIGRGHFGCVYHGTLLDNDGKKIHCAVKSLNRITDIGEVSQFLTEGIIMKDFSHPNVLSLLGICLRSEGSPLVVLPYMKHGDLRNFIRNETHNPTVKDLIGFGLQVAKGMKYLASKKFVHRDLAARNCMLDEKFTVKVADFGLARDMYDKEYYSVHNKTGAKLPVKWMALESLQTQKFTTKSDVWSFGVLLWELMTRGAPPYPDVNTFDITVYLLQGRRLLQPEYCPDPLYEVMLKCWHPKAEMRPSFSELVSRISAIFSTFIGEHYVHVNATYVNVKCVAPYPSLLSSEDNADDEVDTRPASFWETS

Row | IC50 [nM] | Compound
1 | 243 | COc1cc2nccc(Oc3ccc(NC(=O)NC(=O)Cc4cccc(F)c4F)cc3F)c2cc1OC [Example 139, 1-[2-(2,3-difluorophenyl)acetyl]-3-[4-(6,7-dimethoxyquinolin-4-yloxy)-3-fluorophenyl]urea]
2 | 329 | COc1cc2nccc(Oc3ccc(NC(=O)NC(=O)Nc4ccc(Cl)cn4)cc3)c2cc1OC [Example 231, N-(5-chloro-2-pyridyl)-({[4-(6,7-dimethoxy-quinolin-4-yloxy)anilino]carbonyl}amino)methanamide]
3 | 2230 | COc1cc2nccc(Oc3ccc(NC(=O)NC(=O)Nc4cccc5cccnc45)cc3)c2cc1OC [Example 260, N-(8-quinolyl)-({[4-(6,7-dimethoxyquinolin-4-yloxy)anilino]carbonyl}amino)methanamide]
4 | 495 | CCOCCC(=O)NC(=S)Nc1ccc(Oc2ccnc3cc(OC)c(OC)cc23)c(F)c1 [Example 165, 1-[4-(6,7-dimethoxyquinolin-4-yloxy)-3-fluorophenyl]-3-(3-ethoxypropionyl)thiourea]
5 | 373 | COc1cc2nccc(Oc3ccc(NC(=S)NC(=O)Cc4ccccc4[N+](=O)[O-])cc3Cl)c2cc1OC [Example 156, 1-[3-chloro-4-(6,7-dimethoxyquinolin-4-yloxy)phenyl]-3-[2-(2-nitrophenyl)acetyl]thiourea]
6 | 79.2 | COc1cc2nccc(Oc3ccc(NC(=S)NC(=O)Cc4cccs4)cc3)c2cc1OC [Example 66, 1-[4-(6,7-dimethoxyquinolin-4-yloxy)phenyl]-3-(2-thiophen-2-ylacetyl)thiourea]
7 | 29.1 | COc1cc(Oc2ccnc3cc(OC)c(OC)cc23)ccc1NC(=O)NC(=O)Cc1ccc(F)cc1 [Example 38, 1-[4-(6,7-dimethoxyquinolin-4-yloxy)-2-methoxyphenyl]-3-[2-(4-fluorophenyl)acetyl]urea]
8 | 127 | COc1cc2c(Oc3ccc(NC(=S)NC(=O)Cc4ccccc4F)cc3F)ccnc2cc1OCC(O)CN1CCCC1 (stereo not shown) [Example 319, 1-{3-Fluoro-4-[7-(2-hydroxy-3-pyrrolidin-1-yl-propoxy)-6-methoxy-quinolin-4-yloxy]-phenyl}-3-[2-(2-fluoro-phenyl)-acetyl]-thiourea]
9 | 23.8 | COc1cc2c(Oc3ccc(NC(=S)NC(=O)Cc4cccc(F)c4)cc3F)ccnc2cc1OCCCN1CCOCC1 [Example 289]
10 | 121 | COc1cc2nccc(Oc3ccc(NC(=S)NC(=O)Cc4ccc(F)cc4F)c(F)c3)c2cc1OC [Example 93, 1-[2-(2,4-difluorophenyl)acetyl]-3-[4-(6,7-dimethoxyquinolin-4-yloxy)-2-fluorophenyl]thiourea]
11 | 51.4 | COc1cc2c(Oc3ccc(NC(=O)NC(=O)Cc4ccc(F)cc4)cc3F)ccnc2cc1OCCN1CCN(C)CC1 [Example 49, 1-(3-fluoro-4-{6-methoxy-7-[2-(4-methyl-piperazin-1-yl)-ethoxy]quinolin-4-yloxy}phenyl)-3-[2-(4-fluorophenyl)acetyl]urea]
12 | 330 | COc1cc2nccc(Oc3ccc(NC(=O)NC(=O)CC4C5CCC4CC5)c(F)c3)c2cc1OC (stereo not shown) [Example 126, 1-(2-bicyclo[2.2.1]hepto-7-ylacetyl)-3-[4-(6,7-dimethoxyquinolin-4-yloxy)-2-fluorophenyl]urea]
13 | 306 | COc1cc2nccc(Oc3ccc(NC(=S)NC(=O)Cc4ccc(C)cc4)cc3)c2cc1OC [Example 168, 1-[4-(6,7-dimethoxyquinolin-4-yloxy)phenyl]-3-(2-p-tolylacetyl)thiourea]
14 | 235 | COc1cc2nccc(Oc3ccc(NC(=O)NC(=O)Nc4ccccn4)cc3)c2cc1OC [Example 236, N-(2-pyridyl)-({[4-(6,7-dimethoxyquinolin-4-yloxy)anilino]carbonyl}amino)methanamide]
15 | 171 | COc1cc2nccc(Oc3ccc(NC(=O)NC(=O)Cc4cccs4)cc3Cl)c2cc1OC [Example 32, 1-[3-chloro-4-(6,7-dimethoxyquinolin-4-yloxy)-phenyl]-3-(2-thiophen-2-ylacetyl)urea]
16 | 336 | COc1cc2nccc(Oc3ccc(NC(=O)NC(=O)Cc4cc(F)cc(F)c4)c(F)c3)c2cc1OC [Example 141, 1-[2-(3,5-difluorophenyl)acetyl]-3-[4-(6,7-dimethoxyquinolin-4-yloxy)-2-fluorophenyl]urea]
17 | 284 | COc1cc2nccc(Oc3ccc(NC(=O)NC(=O)Cc4cccc(F)c4F)c(F)c3)c2cc1OC [Example 138, 1-[2-(2,3-difluorophenyl)acetyl]-3-[4-(6,7-dimethoxyquinolin-4-yloxy)-2-fluorophenyl]urea]
18 | 699 | COc1cccc(C(=O)NC(=S)Nc2ccc(Oc3ccnc4cc(OC)c(OC)cc34)c(F)c2)c1 [Example 144, 1-[4-(6,7-dimethoxyquinolin-4-yloxy)-3-fluorophenyl]-3-(3-methoxybenzoyl)thiourea]

Row | IC50 [nM] | Compound
19 | 26.1 | COc1cc2c(Oc3ccc(NC(=O)NC(=O)Cc4ccccc4)cc3F)ccnc2cc1OCCN1CCOCC1 [Example 54, 1-{3-fluoro-4-[6-methoxy-7-(2-morpholin-4-yl-ethoxy)quinolin-4-yloxy]phenyl}-3-phenylacetylurea]
20 | 282 | COc1cc2nccc(Oc3ccc(NC(=S)NC(=O)Cc4cccc(Cl)c4)cc3)c2cc1OC [Example 171, 1-[2-(3-chlorophenyl)acetyl]-3-[4-(6,7-dimethoxyquinolin-4-yloxy)phenyl]thiourea]
21 | 344 | COc1cc2nccc(Oc3ccc(NC(=O)C(C)(C)C(=O)Nc4ccc(F)cc4F)cc3)c2cc1OC [Example 104, N-(2,4-difluorophenyl)-N′-[4-(6,7-dimethoxy-quinolin-4-yloxy)phenyl]-2,2-dimethylmalonamide]
22 | 229 | COc1cc2c(Oc3ccc(NC(=O)NC(=O)Cc4ccc(F)cc4)cc3F)ccnc2cc1OCCCN1CCOCC1 [Example 46, 1-{3-fluoro-4-[6-methoxy-7-(3-morpholin-4-yl-propoxy)quinolin-4-yloxy]phenyl}-3-[2-(4-fluorophenyl)-acetyl]urea]
23 | 241 | COc1cc2nccc(Oc3ccc(NC(=S)NC(=O)Cc4ccc(F)c(F)c4)cc3F)c2cc1OC [Example 199, 1-[2-(3,4-difluorophenyl)acetyl]-3-[4-(6,7-dimethoxyquinolin-4-yloxy)-3-fluorophenyl]thiourea]
24 | 308 | COC(=O)c1ccccc1NC(=O)NC(=O)Nc1ccc(Oc2ccnc3cc(OC)c(OC)cc23)cc1 [Example 245, methyl 2-({({[4-(6,7-dimethoxyquinolin-4-yloxy)anilino]carbonyl}amino)carbonyl}amino)benzoate]
25 | 171 | COc1cc2c(Oc3ccc(NC(=O)NC(=O)Cc4ccccc4)cc3F)ccnc2cc1OCCCN1CCCCC1 [Example 52, 1-{3-fluoro-4-[6-methoxy-7-(3-piperidin-1-yl-propoxy)quinolin-4-yloxy]phenyl}-3-phenylacetylurea]
26 | 41.4 | COc1cc2nccc(Oc3ccc(NC(=O)NC(=O)Cc4ccc(F)c(F)c4)cc3F)c2cc1OC [Example 35, 1-[2-(3,4-difluorophenyl)acetyl]-3-[4-(6,7-dimethoxyquinolin-4-yloxy)-3-fluorophenyl]urea]
27 | 271 | COc1cc2nccc(Oc3ccc(NC(=O)NC(=O)Cc4ccccc4C(F)(F)F)cc3F)c2cc1OC [Example 137, 1-[4-(6,7-dimethoxyquinolin-4-yloxy)-3-fluorophenyl]-3-[2-(2-trifluoromethylphenyl)acetyl]urea]
28 | 650 | COc1cc2nccc(Oc3ccc(NC(=O)NC(=O)Nc4ccccc4Br)cc3)c2cc1OC [Example 247, N-(2-bromophenyl)-({[4-(6,7-dimethoxy-quinolin-4-yloxy)anilino]carbonyl}amino)methanamide]
29 | 235 | COc1cc2c(Oc3ccc(NC(=O)NC(=O)Cc4ccc(F)cc4)c(F)c3)ccnc2cc1OCCCN1CCCCC1 [Example 50, 1-{2-fluoro-4-[6-methoxy-7-(3-piperidin-1-yl-propoxy)quinolin-4-yloxy]phenyl}-3-[2-(4-fluorophenyl)-acetyl]urea]
30 | 30.7 | COc1cc2nccc(Oc3ccc(NC(=S)NC(=O)Cc4ccc(F)cc4F)cc3F)c2cc1OC [Example 94, 1-[2-(2,4-difluorophenyl)acetyl]-3-[4-(6,7-dimethoxyquinolin-4-yloxy)-3-fluorophenyl]thiourea]
31 | 193 | COc1cc2nccc(Oc3ccc(NC(=S)NC(=O)Cc4ccccc4Cl)cc3)c2cc1OC [Example 59, 1-[2-(2-chlorophenyl)acetyl]-3-[4-(6,7-dimethoxyquinolin-4-yloxy)phenyl]thiourea]
32 | 74.3 | COc1cc2nccc(Oc3ccc(NC(=S)NC(=O)Cc4ccc(C)cc4)cc3Cl)c2cc1OC [Example 82, 1-[3-chloro-4-(6,7-dimethoxyquinolin-4-yloxy)-phenyl]-3-(2-p-tolylacetyl)thiourea]
33 | 284 | COc1cc2nccc(Oc3ccc(NC(=S)NC(=O)Cc4cc(F)cc(F)c4)cc3F)c2cc1OC [Example 197, 1-[2-(3,5-difluorophenyl)acetyl]-3-[4-(6,7-dimethoxyquinolin-4-yloxy)-3-fluorophenyl]thiourea]
34 | 2770 | COc1cc2nccc(Oc3ccc(NC(=O)C(OC)C(=O)Nc4ccc(F)cc4F)cc3)c2cc1OC (stereo not shown) [Example 103, N-(2,4-difluorophenyl)-N′-[4-(6,7-dimethoxy-quinolin-4-yloxy)phenyl]-2-methoxymalonamide]
35 | 19.5 | CCN(CC)CCCOc1cc2nccc(Oc3ccc(NC(=O)NC(=O)Cc4ccccc4)cc3F)c2cc1OC [Example 291, 1-{4-[7-(3-Diethylamino-propoxy)-6-methoxy-quinolin-4-yloxy]-3-fluoro-phenyl}-3-phenylacetyl-urea]

Row | Compound | IC50 [nM]
36 | CCCCOCC(=O)NC(=S)Nc1ccc(Oc2ccnc3cc(OC)c(OC)cc23)c(Cl)c1 [Example 193, 1-(2-butoxyacetyl)-3-[3-chloro-4-(6,7-dimethoxyquinolin-4-yloxy)phenyl]thiourea] | 444
37 | COc1cc2c(Oc3ccc(NC(=O)NC(=O)Cc4ccccc4)cc3F)ccnc2cc1OCCCCN1CCN(C)CC1 [Example 12, 1-(3-fluoro-4-{6-methoxy-7-[4-(4-methyl-piperazin-1-yl)-butoxy]quinolin-4-yloxy}phenyl)-3-phenylacetylurea] | 199
